Assay results as given in patent EP0385952A2, “Use of a naphthalenmethanamino derivative as antiinflammatory agent and pharmaceutical compositions containing it” (SANDOZ AG, priority 1989, dated 1990).
Read-outs that look alike come from different tables or passages of the source.

What was measured:
[1] = test system: HACAT cell line; test: Modulation of keratinocyte gene expression and NAP1/IL-8 protein release; type: cell-based, human; conditions: for inhibition at 10 µM: Homo sapiens, HaCaT, ELISA
Method: The HACAT cell line is grown in 200 ml culture flasks in KGM medium (Clonetics) at 0.06 mM Ca until 50 % confluency. Thereafter cells are starved in KBM medium (Clonetics) for 2 days. The resulting preconfluent cells are then stimulated with αTNF (Genzyme, 500 or 1000 U/ml) or IL-1α (Boehringer, 200 U/ml) obtained from stock solutions and further diluted in KBM medium for the indicated times in the presence of test substance. At the end of the incubation period total cellular RNA is extracted as described above under 1.1.5. 20 µg RNA is run on 1 % formaldehyde agarose gels and transferred onto hybond N filters (Amersham) in a northern capillary transfer using 20xSSC. The filters are then baked for 2 hours and prehybridized for 4 hours. Hybridization (16 hours) and washing are performed at 65°C using oligonucleotide probes for NAP1/IL-8. For control, blots are rehybridised with an actin probe (Oncor). Concentrations of NAP1/IL-8 in the supernatants of the keratinocyte cultures are determined using a solid phase double ligand ELISA.

[2] = test system: platelets; test: Thromboxane B₂ production in platelets; type: cell-based; conditions: Platelet, read-out: IC₅₀ for thromboxane B₂ production
[3] = test system: human cell line Mono-Mac-6; test: LPS-induced NAP1/IL-8, αTNF- and IL-1β-mRNA accumulation (RNA blotting); type: cell-based
Method: Human Mono-Mac-6 cells, which have many of the phenotypic and functional characteristics of mature peripheral blood monocytes [H. Ziegler et al, Int. J. Cancer 41 (1988) 456-461] are grown up to 10⁶ cells/ml im RPMI 1640 medium supplemented with 10 % FCS, 1 % pen/strep and 0.25 % amphotericin. In each of 6 activation experiments 10⁷ cells are incubated for 4 hours at 37°C and 5 % CO₂. LPS is used in a concentration of 1 µg/ml and the test substance in concentrations of 10⁻⁵ M to 10⁻⁷ M.
After induction times the cells are pelleted [5 min, 1200 rpm, room temperature]. Total cellular RNA is extracted from the pelleted cells using the guanidinium isothiocyanate/cesium chloride method of J.M. Chirgwin et al., Biochemistry 18 (1979) 5294-5299. 10 µg samples of the extracted RNA are size-fractionated by 1.2 % formaldehyde agarose gel electrophoresis [T. Maniatis et al., Molecular Cloning: A Laboratory Manual, Cold Spring Harbour, New York (1982) p. 187-206], transferred to synthetic membranes (Hybond N, Amersham) with 20xSSC (1xSSC is 150 mM NaCl, 15 mM sodium citrate, pH 7.0) overnight. The filters are baked for 2 hours at 65°C and prehybridized for 4 hours at 65°C in 5xSSC, 10x Denhardt's solution (1x Denhardt's solution is 0.02 % bovine serum albumin, 0.02 % polyvinyl pyrrolidone, 0.02 % ficoll), 10 % dextrane sulphate, 20 mM sodium phosphate pH 7.0, 7 % SDS, 100 µg/ml sonicated salmon sperm DNA, and 100 µg/ml polyA. ³²P-labelled synthetic NAP1/IL8, αTNF and IL-1β oligonucleotide probes are used as the hybridization probes. Hybridization is performed at 65°C in the pre-hybridization buffer containing the labelled probe for 16 hours. The blots are washed once in 5 % SDS, 3xSSC, 10x Denhardt's solution, 20 mM sodium phosphate pH 7.0 for 30 minutes at 65°C, and once in 1xSSC, 1 % SDS at 65°C for 30 minutes. Filters are exposed at -70°C to KODAK XAR-5 films using intensifying screens. After washing for 30 minutes in 0.1 % SDS at 65°C, blots are reused for a second hybridization with a β-actin specific oligonucleotide probe to quantitate the mRNA amounts.

[4] = test system: lactate dehydrogenase release; test: Cytotoxicity: release of lactate dehydrogenase; type: cell-based; conditions: cytotoxicity control of the in vitro assays
Method: Macrophages 10 to 14 days old isolated from the bone marrow of mice are incubated in monolayers with the test compound in the presence of Concanavalin A (Con A) (100 µg/ml) as soluble stimulant. After 24 hours the cell-free medium is collected and macrophage activation is investigated biochemically as the extent of plasminogen activator release, assayed photometrically as the plasminogen-dependent amidolysis of D-Val-Phe-Lys-4-nitroanilide according to the principles described in J.C. Drapier et al., Biochemie 61 (1979) 463-471. Cell viability is assayed by measurement of lactate dehydrogenase release according to the method of H.U. Bergmeyer and E. Bernt, Methoden der Enzymatischen Analyse, 3. Auflage, Verlag Chemie (1974) 612-615, adapted as a kinetic assay using microtiter plates. All cultures are checked microscopically for qualitative morphological modification.
The test compound is added in various concentrations to monolayers of OF₁-mouse resident peritoneal macrophages isolated as described in J. Schnyder and M. Baggiolini, J. Exp. Med. 148 (1978) 435-450. […] The supernatants are then analysed by radioimmunoassay procedures for thromboxane B₂, prostaglandin E₂ and leukotriene C₄. Lactate dehydrogenase activities in the medium and cell lysates are also measured as an indication of cell toxicity.

[5] = test system: guinea pigs; test: UV-erythema model (2.2.); type: in vivo; conditions: therapeutic, test concentration 5.0 %, topical, erythema score
Method: Female guinea pigs weighing 250-300 g are used. On the day before experiment they are shorn on both flanks followed by a final dry shaving without skin irritation two hours before UV exposure. Two circular areas (10 mm diameter) on each flank are exposed 10 seconds to ultraviolet rays from […] at an intensity of 16 mW/cm² (UVA) and 500 mW/cm² (UVB). Drugs are administered topically immediately after exposure to UV light in a volume of 50 µl of 25 % ethanol and 75 %polyethylenglycol-400 to the irradiated skin areas on the right flank. Two areas on the left flank serve as vehicle control. Erythema is assessed visually 3.5 and 5.5 hours after irradiation and results expressed in scores. Changes in erythema intensity after drug administration are expressed as percentages of the scored erythema intensity in vehicle-treated areas.

[6] = remaining level, 10.0 µM, LPS 1 µg/ml, 4 hours

`CN(C/C=C/c1ccc(O)cc1)Cc1cccc2ccccc12` [compound of the invention, (E)-N-methyl-N-[3-(4-hydroxyphenyl)-2-propenyl]-1-naphthalene-methanamine] was tested, and the inhibition at 10 µM ([1]; read-out: inhibition of IL-1α-stimulated release of NAP1/IL-8) was 40%, the inhibition at 10 µM ([1]; read-out: inhibition of αTNF-stimulated release of NAP1/IL-8) was 90% and the “αTNF-induced NAP1/IL-8 mRNA accumulation decreased to” value ([1]; remaining level, 20.0 µM) was 60%. For the same compound, the IC50 [2] was 100 µM, the “concentration inhibiting lps-induced transcription of nap-1/il-8, αtnf and il-iβ” value ([3]; mono-mac 6 cell line, summary statement) was “about 10 µm” and the “LPS-induced IL-1β-mRNA accumulation decreased to” value [3, 6] was 50%. For the same compound, the “LPS-induced NAP1/IL-8-mRNA accumulation decreased to” value [3, 6] was 20%, the “LPS-induced αTNF-mRNA accumulation decreased to” value [3, 6] was 10% and the “release of lactate dehydrogenase” value [4] was “below 10%”. For the same compound, the “Efficacy (%)” value [5] was 27%.
